Experimental findings from US20100330003A1, “ORAL CARE PRODUCT AND METHODS OF USE AND MANUFACTURE THEREOF” (Colgate-Palmolive Company, priority 2008, published 2010) are described below.

The subject of the assay is S. sanguis. Briefly: ammonia production by S. sanguis at pH 4.0 (Ammonia Assay kit). It counts as cell-based. Particulars: 5 millimolar amino acid, 0.1% sucrose, pH 4.0, 37° C., 30 minutes. How it is done:
An overnight culture of S. sanguis is grown at 37° C. in trypticase soy broth (Becton Dickinson, Sparks, Md.). The culture is centrifuged at 5,000 rpm for 5 minutes at 1 milliliter at a time into preweighed tubes in order to accumulate approximately 5 milligrams of wet pellet weight. The pellet is then resuspended into 20 millimolar potassium phosphate buffer (JT Baker. Phillipsburg, N.J.), pH 4.0, to simulate a stressed environment for the bacterial cell where ammonia would be produced for survival. The final concentration is 5 milligram per milliliter. To this final concentration, a 5 millimolar final concentration of L-arginine, L-citrulline, or L-ornithine is added along with a 0.1% final concentration of sucrose (VWR, West Chester, Pa.). This mixture is then incubated at 37° C. in a shaking water bath for 30 minutes before ammonia production is determined.
In order to analyze for ammonia, an Ammonia Assay kit is used from Diagnostic Chemicals Limited (Oxford, Conn.). The intended use of this specific kit is for the in vitro quantification of ammonia in plasma, but the procedure is modified in order to determine and quantity the ammonia production in plaque and/or bacteria.

Take `NCCC[C@H](N)C(=O)O` [L-Ornithine, L-ornithine]: the “Ammonia (ppm)” value (Mean of 6 separate trials) was 0.134 ppm; the “Ammonia (ppm)” value (Trial 1) was 0.185 ppm; the “Ammonia (ppm)” value (Trial 2) is on record as 0.260 ppm; the “Ammonia (ppm)” value (Trial 3) is reported as 0.047 ppm; the “Ammonia (ppm)” value (Trial 4) is 0.0 ppm; the “Ammonia (ppm)” value (Trial 5) worked out at 0.181 ppm. Besides, the “Ammonia (ppm)” value (Trial 6) came to 0.135 ppm.
As for `N=C(N)NCCC[C@H](N)C(=O)O` [L-Arginine, L-arginine], the “Ammonia (ppm)” value runs as follows: (Mean of 6 separate trials) 1.06 ppm; (Trial 1) 0.509 ppm; (Trial 2) 0.866 ppm; (Trial 3) 2.20 ppm; (Trial 4) 1.62 ppm; (Trial 5) 0.5 ppm. Also, the “Ammonia (ppm)” value (Trial 6) stood at 0.679 ppm.
Take `NC(=O)NCCC[C@H](N)C(=O)O` [L-Citrulline, L-citrulline]: the “Ammonia (ppm)” value is, setting by setting: (Mean of 6 separate trials) 0.951 ppm; (Trial 1) 0.185 ppm; (Trial 2) 0.346 ppm; (Trial 3) 0.332 ppm; (Trial 4) 0.194 ppm; (Trial 5) 0.226 ppm. Further, the “Ammonia (ppm)” value (Trial 6) worked out at 0.951 ppm.
